This note sets out measurements from patent US8466113B2, “4-isopropylphenyl glucitol compounds as SGLT1 inhibitors” (Taisho Pharmaceutical Co., Ltd., priority 2009, dated 2013).

One experiment deals with T1, human SGLT1 (Homo sapiens, UniProt P13866).
T1 construct: expressed in transfected cells; host or cells: CHO-K1
T1 sequence (P13866 1-664): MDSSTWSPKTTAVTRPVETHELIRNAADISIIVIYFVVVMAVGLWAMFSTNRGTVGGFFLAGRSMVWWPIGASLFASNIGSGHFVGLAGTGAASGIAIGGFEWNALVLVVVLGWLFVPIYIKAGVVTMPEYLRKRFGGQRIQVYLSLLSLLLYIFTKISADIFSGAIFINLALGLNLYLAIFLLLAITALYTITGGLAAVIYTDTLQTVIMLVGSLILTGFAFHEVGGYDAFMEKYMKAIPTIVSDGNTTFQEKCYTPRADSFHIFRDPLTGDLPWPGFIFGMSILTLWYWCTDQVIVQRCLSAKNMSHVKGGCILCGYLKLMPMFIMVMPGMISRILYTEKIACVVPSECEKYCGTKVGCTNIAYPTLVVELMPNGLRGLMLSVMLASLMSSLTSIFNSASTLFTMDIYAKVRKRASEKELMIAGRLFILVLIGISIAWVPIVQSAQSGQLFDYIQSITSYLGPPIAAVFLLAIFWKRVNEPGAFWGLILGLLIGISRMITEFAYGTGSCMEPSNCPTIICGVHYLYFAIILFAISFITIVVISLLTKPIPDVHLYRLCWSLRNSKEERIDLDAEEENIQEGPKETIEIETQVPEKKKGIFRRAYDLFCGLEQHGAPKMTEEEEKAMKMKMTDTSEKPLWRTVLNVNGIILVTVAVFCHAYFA
The experiment is described as follows: Inhibition test for sodium-dependent sugar uptake in CHO-K1 cells stably expressing human SGLT1. The class given is cell-based. To be noted: [14C]methyl α-D-glucopyranoside uptake, 37° C., 30 minutes, read-out: IC50 for hSGLT1. The method, then:
(1) Creation of CHO-K1 Cells Stably Expressing Human SGLT1
A plasmid vector expressing human SGLT1 protein was transfected into CHO-K1 cells using lipofectamine 2000 (Invitrogen). The cells were cultured in the presence of 500 μg/mL geneticin to select resistant strains, followed by screening in the system shown below using sugar uptake capacity as an indicator to obtain SGLT1-expressing cells.
(§1) (3) Inhibition Test for Sodium-Dependent Sugar Uptake in Stably Expressing Cells
(§2) The stably expressing cells prepared above were used in the following test.
(§3) Pretreatment buffer (140 mM choline chloride, 2 mM KCl, 1 mM CaCl2, 1 mM MgCl2, 10 mM HEPES/5 mM Tris, pH 7.4) was added in a volume of 200 μL to the cells stably expressing SGLT1 or 2 mL for Method A and 200 μL for Method B to the cells stably expressing SGLT2, followed by incubation for 20 minutes. The pretreatment buffer was removed and replaced by uptake buffer containing a test compound (1 mM methyl α-D-glucopyranoside (containing [^14C]methyl α-D-glucopyranoside), 140 mM NaCl, 2 mM KCl, 1 mM CaCl2, 1 mM MgCl2, 10 mM HEPES/5 mM Tris, pH 7.4) in a volume of 75 μL for SGLT1 and SGLT2 in Method B or 200 μL for SGLT2 in Method A. Uptake reaction was performed at 37° C. for 30 minutes (SGLT1) or 60 minutes (SGLT2). After the reaction, the cells were washed twice with washing buffer (10 mM methyl α-D-glucopyranoside, 140 mM choline chloride, 2 mM KCl, 1 mM CaCl2, 1 mM MgCl2, 10 mM HEPES/5 mM Tris, pH 7.4) in a volume of 200 μL for SGLT1 and SGLT2 in Method B or 2 mL for SGLT2 in Method A, and then dissolved in a 0.25 M NaOH solution (75 μL for SGLT1 and SGLT2 in Method B or 400 μL for SGLT2 in Method A). A liquid scintillator (Perkin Elmer) was added and mixed well with each sample, followed by measurement of radioactivity using a β-ray analyzer. For the control group, uptake buffer containing no test compound was prepared. Moreover, another uptake buffer containing choline chloride instead of NaCl was also prepared for basal uptake.
(§4) For determination of IC50 values, test compounds prepared at 6 appropriate concentrations were used and their concentrations required for 50% inhibition of the amount of sugar uptake (IC50 values) were calculated relative to the amount of sugar uptake in the control group (100%).

The target in experiment [1] is T2, human SGLT2 protein modified to have LeuGluSerArgGlyProVal added to the carboxy-terminal final residue (Homo sapiens, UniProt P31639).
T2 construct: expressed in transfected cells; host or cells: CHO-K1
T2 sequence (P31639 with tags, fused parts or gaps): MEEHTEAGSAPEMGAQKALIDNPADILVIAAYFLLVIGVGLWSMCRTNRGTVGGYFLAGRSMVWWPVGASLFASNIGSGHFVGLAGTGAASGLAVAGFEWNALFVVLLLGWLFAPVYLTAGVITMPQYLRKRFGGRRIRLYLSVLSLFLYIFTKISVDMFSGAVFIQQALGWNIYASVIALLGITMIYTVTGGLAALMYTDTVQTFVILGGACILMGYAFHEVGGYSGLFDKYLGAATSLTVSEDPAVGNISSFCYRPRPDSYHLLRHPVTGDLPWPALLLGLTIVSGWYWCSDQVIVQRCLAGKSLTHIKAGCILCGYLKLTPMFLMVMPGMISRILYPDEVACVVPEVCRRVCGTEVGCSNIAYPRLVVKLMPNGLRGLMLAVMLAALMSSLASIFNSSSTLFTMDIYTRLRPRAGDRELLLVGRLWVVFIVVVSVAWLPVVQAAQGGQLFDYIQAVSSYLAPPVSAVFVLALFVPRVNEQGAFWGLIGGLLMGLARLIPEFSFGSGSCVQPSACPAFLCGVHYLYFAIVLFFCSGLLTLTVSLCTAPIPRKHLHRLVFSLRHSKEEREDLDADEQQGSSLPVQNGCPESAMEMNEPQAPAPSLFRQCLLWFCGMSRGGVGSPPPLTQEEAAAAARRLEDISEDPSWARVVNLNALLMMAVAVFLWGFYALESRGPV
Nature of the experiment: Inhibition test for sodium-dependent sugar uptake in CHO-K1 cells stably expressing human SGLT2, Method A. The class given is cell-based. To be noted: uptake 37° C., 60 minutes, read-out: IC50 for hSGLT2 Method A. As to the method: (2) Creation of CHO-K1 Cells Stably Expressing Human SGLT2
Method A (described in WO2007/136116): A plasmid vector expressing human SGLT2 protein modified to have LeuGluSerArgGlyProVal added to the carboxy-terminal final residue was transfected into CHO-K1 cells using lipofectamine 2000 (Invitrogen). The cells were cultured in the presence of 500 μg/mL hygromycin B to select resistant strains, followed by screening in the system shown below using sugar uptake capacity as an indicator to obtain SGLT2-expressing cells.
as §1, §2, §3, §4

pIC50: −log10 of the molar value.

By pIC50 is commonly meant −log10 of the IC50, conventionally taken in molar units. As to `Cc1cc(/C=C/C(C)(C)C(=O)NC(C)(C)C(=O)NCCN(C)C)ccc1Cc1cc([C@@H]2O[C@H](CO)[C@@H](O)[C@H](O)[C@H]2O)c(O)cc1C(C)C` [Example 1-2], the results for the negative-log IC50 (pIC50) (on human SGLT1; in experiment [1]) were 7.46 and 5.57, respectively.
For the compound `Cc1cc(/C=C/C(C)(C)C(=O)NC(C)(C)C(=O)N2CCC(N(C)C)CC2)ccc1Cc1cc([C@@H]2O[C@H](CO)[C@@H](O)[C@H](O)[C@H]2O)c(O)cc1C(C)C` [Example 5-2], the pIC50 is 7.38 at human SGLT1 and 6.10 in experiment [1].
With `Cc1cc(/C=C/C(C)(C)C(=O)NC(C)(C)C(=O)NCC(C)(C)N)ccc1Cc1cc([C@@H]2O[C@H](CO)[C@@H](O)[C@H](O)[C@H]2O)c(O)cc1C(C)C` [Example 6-2], the pIC50 is 7.57 at human SGLT1 and 5.51 in experiment [1].
`COc1cc(C(C)C)c(Cc2ccc(/C=C/C(C)(C)C(=O)NC(C)(C)C(=O)NCC(C)(C)N)cc2C)cc1[C@@H]1O[C@H](CO)[C@@H](O)[C@H](O)[C@H]1O` [Example 13-2]: the figures for the pIC50 (at human SGLT1; in experiment [1]) were 7.27 and 4.83, respectively.
As to `COc1cc(C(C)C)c(Cc2ccc(/C=C/C(C)(C)C(=O)NC(C)(C)C(=O)NCCN(C)C)cc2)cc1[C@@H]1O[C@H](CO)[C@@H](O)[C@H](O)[C@H]1O` [Example 15-2], the pIC50 is 7.54 on human SGLT1 and 5.89 in experiment [1].
